Source: patent US9096835B2, “DNA polymerase” (Medical Research Council, priority 2003, dated 2015)

Legend:
[1] = PCR with all four dNTPs replaced by αS dNTPs; format: biochemical; details: 50 cycle PCR, 50 μM αS dNTPs
Description: (§1) A PCR assay was used to screen and rank clones. Briefly, clones were normalized for activity in PCR with matched primers 3, 4 and activity with mismatched primers 1 and 2 (1 μM each) determined at minimal cycle number (15-25 cycles). Extension capability for different mismatches was determined by the same assay using mismatch primers 2 (C•C mismatch), 5 (A•A mismatch), 6 (G•G mismatch), 7 (G•A mismatch) with matched primer 3 or primer 1 (A•G mismatch) with matched primer 4. Incorporation of unnatural substrates in 50 cycle PCR was carried out using standard conditions and 50 μM […] dNTPs (Promega) or 50 μM FITC-12-dATP (Perkin-Elmer), Rhodamine-5-dUTP (Perkin-Elmer) or Biotin-16-dUTP (Roche) with equivalent amounts of the other 3 dNTPs (all 50 μM). Long PCR was carried out using a two-step cycling protocol as described (22) 94° C. for 2 minutes, followed by 20 cycles of (94° C. 15 sec, 68° C. 30 min) using 5 ng of phage λ DNA (New England Biolabs) template and either primers 9, 10, 11 with primer 12 or primer 13 with primers 10, 14.

[2] = system: primer-template duplex with matched or mismatched 3′ terminus; experiment: Steady-state extension kinetics, gel-based assay; format: biochemical; details: incorporated base is dCTP
Description: Kinetic parameters were determined using a gel-based assay essentially as described (16). Primers 15, 16, 17 (3′ base=G, C, A respectively) were ^32P-labeled and annealed to one of template strands 18, 19, 20 (template base=C, G, A respectively) or 21 (template base C different context). Duplex substrates were used at 50 nM final concentration in 1× Taq buffer with various concentrations of enzyme and dNTP. Reactions were carried out at 60° C. for times whereby <20% of primer-template was utilized at the highest concentration of dNTP.
Extension and incorporation kinetics of M1 and M4 for a selection of mismatches were measured using a gel-based steady-state kinetic assay (Goodman) (Tables 1 & 2). M1 and M4 respectively extend a C•C mispair 390 and 75-fold more efficiently than wtTaq. […] The gain in extension efficiency derives predominantly from increased relative Vmax values for the mutant polymerases, while Km for nucleotide substrates remains largely unchanged. For most DNA polymerases the relative efficiency of extending a given mispair (f0ext) is similar to the relative efficiency of forming it (finc) (Goodman 1993, Goodman 1990, Washington 2001). Indeed, M1 and M4 respectively incorporate dCTP opposite template base C 206- and 29-fold more efficiently than wtTaq (Table 2).

[3] = system: primer-template DNA substrates; experiment: Processivity primer extension assay with and without trap DNA; format: biochemical
Description: Processivity was measured using a primer extension assay the presence and absence of trap DNA. Termination probabilities were calculated according to the method of Kokoska et al.
Oligonucleotide primer 32 (5′-GCGGTGTAGAGACGAGTGCGGAG-3′) (SEQ ID NO: 117) was ^32P-labelled and annealed to the template 33 (5′-CTCTCACAAGCAGCCAGGCAAGCTCCGCACTCGTCTCTACACCGCTCCGC-3′ (SEQ ID NO: 118)) (at a primer/template ratio of molar 1/1.5). wtTaq (0.0025 nM; 0.025 nM; 0.25 nM), M1(0.05 nM; 0.5 nM; 5 nM), and M4 (0.05 nM; 0.5 nM; 5 nM) were preincubated with the primer-template DNA substrates (10 nM) in 10 mM Tris-HCl at pH 9.0, 5 mM MgCl2, 50 mM KCl, 0.1% Triton X 100 at 25° C. for 15 min. Reactions were initiated by addition of 100 μM dNTPs with or without trap DNA (1000-fold excess of unlabeled primer-templates). Reactions were performed at 60° C. for 2 min. […] Thus, in the presence of trap DNA, all DNA synthesis resulted from a single DNA binding event. Gel band intensities were calculated using a Phosphoimager and ImageQuant (both Molecular Dynamics) software. Percentage of polymerase molecules, which extended primers to the end of the template was calculated using the formula: In×100%/(I1+I2+ . . . +In), where In is the intensity of the band at position 22 or 23; I1, I2 . . . is the intensity of the band at position 1, 2 . . . . Termination probabilities (τ) were calculated according to the method of Kokoska et al^1, whereby t at a particular template position was calculated as the intensity of the band at this position divided by the sum of the intensity of this band and the band intensities of all longer products.

[4] = molecular target: matched and mismatched primer-template duplex; experiment: Template affinity equilibrium binding assay; details: not shown
Description: An equilibrium binding assay (12) was used to determine relative affinity of polymerases for the mismatched primer-templates used in the kinetics assays. Polymerases were preincubated at 60° C. in 1× Taq buffer with 50 nM ^32P-labeled matched primer-template and 50 nM unlabeled mismatched competitor primer-templates. Reactions were initiated by simultaneous addition of dCTP (200 μM) and trap DNA (XbaI/SalI-restricted sheared salmon sperm DNA, 4.5 mg/ml).

[5] = system: undamaged template; experiment: Translesion replication assay, control; format: biochemical; details: gel-extension assay, 60° C.
Description: Template primers 22 (undamaged) or 23 (containing a synthetic abasic site) were synthesized by Lofstrand Laboratories (Gaithersburg, Md.). Template primer 24 (containing a single cis-syn thymine dimer), was synthesized as described (34). Primer 25 was ^32P-labeled and annealed to one of the three templates 22, 23, 24 (at a primer template ratio of molar 1:1.5) and extended in 40 mM Tris.HCl at pH 8.0, 5 mM MgCl2, 100 μM of each dNTP, 10 mM DTT, 250 μg/ml BSA, 2.5% glycerol, 10 nM primer-template DNA and 0.1 Unit of polymerase at 60° C. for various times.

[6] = system: primers with 3′ transversion mismatches; experiment: Mismatch extension PCR assay; format: biochemical; details: G•A, C•C, G•G mismatched primers
Description: as §1

[7] = 3′-terminal base pair C · G (template base: 3′ primer base), matched

Ratio of fext, fext (mutant polymerase)/fext (wtTaq) ([2]; 3′-terminal base pair A · A): 1.0 | Ratio of fext, fext (mutant polymerase)/fext (wtTaq) ([2]; 3′-terminal base pair A · G): 1.0 | Ratio of fext, fext (mutant polymerase)/fext (wtTaq) ([2]; 3′-terminal base pair C · C): 1.0 | Ratio of fext, fext (mutant polymerase)/fext (wtTaq) ([2]; 3′-terminal base pair G · A): 1.0 | Ratio of fext, fext (mutant polymerase)/fext (wtTaq) ([2]; 3′-terminal base pair G · G): 1.0 | bound polymerase that extended primers to the end of the template ([3]; in the presence of trap DNA (single DNA binding event)): 13% | dissociation constants for matched and mismatched primer-template duplex [4]: indistinguishable
Substance: wtTaq: Thermus aquaticus (Taq) wild type DNA polymerase [reference compound]
PCR amplification with all four αS dNTPs [1]: failed to generate any amplification products | Vmax ([2]; 3′-terminal base pair A · A (template base: 3′ primer base)): 1.7 % Min^−1 | Km ([2]; 3′-terminal base pair A · A): 27.3 µM | fext, f (mismatched 3′terminus)/f (matched terminus) ([2]; 3′-terminal base pair A · A): 6.7 × 10^−7 | Vmax ([2]; 3′-terminal base pair A · G (template base: 3′ primer base)): 28.0 % Min^−1 | Km ([2]; 3′-terminal base pair A · G): 45.2 µM | fext, f (mismatched 3′terminus)/f (matched terminus) ([2]; 3′-terminal base pair A · G): 2.1 × 10^−7 | Vmax ([2]; 3′-terminal base pair C · C (template base: 3′ primer base)): 0.2 % Min^−1 | Km ([2]; 3′-terminal base pair C · C): 39.9 µM | fext, f (mismatched 3′terminus)/f (matched terminus) ([2]; 3′-terminal base pair C · C): 5.9 × 10^−8 | Km [2, 7]: 0.016 µM | Vmax [2, 7]: 1477.0 % Min^−1 | Vmax ([2]; 3′-terminal base pair G · A (template base: 3′ primer base)): 1.6 % Min^−1 | Km ([2]; 3′-terminal base pair G · A): 32.8 µM | fext, f (mismatched 3′terminus)/f (matched terminus) ([2]; 3′-terminal base pair G · A): 5.4 × 10^−7 | Vmax ([2]; 3′-terminal base pair G · G (template base: 3′ primer base)): 20.4 % Min^−1 | Km ([2]; 3′-terminal base pair G · G): 174 µM | fext, f (mismatched 3′terminus)/f (matched terminus) ([2]; 3′-terminal base pair G · G): 1.3 × 10^−6 | termination probability ([3]; positions 6 and 7): 5% | primer extension on undamaged template [5]: efficiently and rapidly extended primers to the end of the template | extension of 3′ transversion mismatches in PCR [6]: unable to extend
